In patent publication US9096608B2, “Pharmaceutically active pyrazolo-triazine derivatives” (LEAD DISCOVERY CENTER GMBH, priority 2012, dated 2015):
Read-outs that look alike come from different tables or passages of the source.

Tests used:
Type in all cases: biochemical
[1] = target: T1, CDK7/CycH/Mat1 (Homo sapiens, UniProt P50613); assay: CDK7 Enzymatic Activity Assay (Lance Kinase Activity Assay, FRET)
T1 construct: purchased Carna
Procedure, shortened: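 TR-FRET (LANCE) kinase assay with ULight-MBP peptide substrate and Eu-labelled anti-phospho antibody; compounds in 8-point 1:3 series in HEPES 50 mM pH 7.5, MgCl2 10 mM, EGTA 1 mM, DTT 2 mM, 0.01% Tween-20.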

[2] = target: T2, CDK9/Cyclin T1 (Homo sapiens, UniProt P50750); assay: CDK9 Enzymatic Activity Assay (Lance Kinase Activity Assay, FRET); conditions: for CDK9: Selectivity of CDK7 inhibition over CDK9 inhibition [fold]: Table 5B, symbols per IC50 ranges of b615
T2 construct: purchased Invitrogen
T2 sequence (P50750 whole entry): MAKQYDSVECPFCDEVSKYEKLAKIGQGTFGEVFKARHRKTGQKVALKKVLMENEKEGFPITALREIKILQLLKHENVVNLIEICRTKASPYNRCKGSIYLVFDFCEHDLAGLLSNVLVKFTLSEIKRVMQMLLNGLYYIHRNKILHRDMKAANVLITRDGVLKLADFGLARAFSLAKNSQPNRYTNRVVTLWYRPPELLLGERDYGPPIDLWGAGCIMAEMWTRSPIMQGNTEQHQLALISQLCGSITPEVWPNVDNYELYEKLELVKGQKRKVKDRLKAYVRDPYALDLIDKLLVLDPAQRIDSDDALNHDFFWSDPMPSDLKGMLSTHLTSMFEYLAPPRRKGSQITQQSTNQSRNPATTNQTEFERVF
T2 sequence (O60563 whole entry partner): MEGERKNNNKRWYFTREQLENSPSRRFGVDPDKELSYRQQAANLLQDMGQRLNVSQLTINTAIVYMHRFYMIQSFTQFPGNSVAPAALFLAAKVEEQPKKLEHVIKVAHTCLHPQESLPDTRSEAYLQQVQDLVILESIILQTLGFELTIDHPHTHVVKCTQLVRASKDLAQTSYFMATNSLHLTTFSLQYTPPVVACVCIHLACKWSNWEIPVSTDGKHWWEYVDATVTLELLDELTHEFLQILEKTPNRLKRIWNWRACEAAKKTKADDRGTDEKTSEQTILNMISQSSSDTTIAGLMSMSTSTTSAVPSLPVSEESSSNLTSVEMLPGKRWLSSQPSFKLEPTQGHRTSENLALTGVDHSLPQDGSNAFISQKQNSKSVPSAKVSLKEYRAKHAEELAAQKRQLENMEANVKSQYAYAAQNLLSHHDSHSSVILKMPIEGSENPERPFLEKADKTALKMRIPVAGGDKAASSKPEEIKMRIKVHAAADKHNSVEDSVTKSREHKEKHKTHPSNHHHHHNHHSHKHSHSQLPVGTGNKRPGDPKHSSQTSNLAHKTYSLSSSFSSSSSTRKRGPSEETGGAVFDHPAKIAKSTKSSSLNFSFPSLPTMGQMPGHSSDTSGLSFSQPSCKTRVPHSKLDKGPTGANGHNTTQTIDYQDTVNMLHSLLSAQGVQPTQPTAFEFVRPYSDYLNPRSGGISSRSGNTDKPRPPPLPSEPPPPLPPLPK
Procedure, shortened: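 TR-FRET detection of ULight-MBP substrate phosphorylation by CDK9/cyclin T1 using a Eu-anti-phospho-MBP antibody, in 50 mM HEPES pH 7.5, 10 mM MgCl2, 1 mM EGTA, 2 mM DTT, 0.01% Tween-20. Kinase reaction 1 h at room temperature, then EDTA detection buffer for 1 h before reading.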

[3] = target: T3, CDK2/CycA (Homo sapiens, UniProt P24941); assay: CDK2 Enzymatic Activity Assay (Lance Kinase Activity Assay, FRET); conditions: for CDK2 IC50 range class: Table 5B, symbols per IC50 ranges of b615
T3 construct: purchased Proqinase
Procedure, shortened: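 Compounds serially diluted 1:3 over 8 steps, run with CDK2/CycA, ULight-MBP substrate and ATP in HEPES pH 7.5 buffer for 1 h at room temperature. LANCE TR-FRET detection with Eu-anti-phospho-MBP after EDTA stop; IC50 from sigmoidal dose-response curves.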

[4] = Table 5A, 25 μM ATP final, read-out: CDK7: IC50 [mM] for CDK7 inhibition (the above defined ranges apply)

T1 sequence (P50613 whole entry): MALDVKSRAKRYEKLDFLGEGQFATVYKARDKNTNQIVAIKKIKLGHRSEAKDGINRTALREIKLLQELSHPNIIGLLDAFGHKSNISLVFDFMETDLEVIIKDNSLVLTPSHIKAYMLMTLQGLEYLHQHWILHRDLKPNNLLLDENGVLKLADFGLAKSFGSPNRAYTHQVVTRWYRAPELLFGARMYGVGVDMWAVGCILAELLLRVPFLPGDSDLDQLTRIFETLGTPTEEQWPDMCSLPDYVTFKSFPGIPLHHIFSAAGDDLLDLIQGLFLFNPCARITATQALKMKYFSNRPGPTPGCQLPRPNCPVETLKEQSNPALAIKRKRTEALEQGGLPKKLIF
T1 sequence (P51946 whole entry partner): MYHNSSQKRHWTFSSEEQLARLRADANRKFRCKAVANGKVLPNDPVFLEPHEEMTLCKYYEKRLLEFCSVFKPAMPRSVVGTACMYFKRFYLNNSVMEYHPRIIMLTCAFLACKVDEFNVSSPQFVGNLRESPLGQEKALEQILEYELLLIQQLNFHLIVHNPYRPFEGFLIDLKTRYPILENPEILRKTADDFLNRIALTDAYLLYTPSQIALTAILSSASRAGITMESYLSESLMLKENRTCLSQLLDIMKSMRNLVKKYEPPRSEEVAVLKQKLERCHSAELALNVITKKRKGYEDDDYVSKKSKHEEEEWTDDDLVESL
T1 sequence (P51948 whole entry partner): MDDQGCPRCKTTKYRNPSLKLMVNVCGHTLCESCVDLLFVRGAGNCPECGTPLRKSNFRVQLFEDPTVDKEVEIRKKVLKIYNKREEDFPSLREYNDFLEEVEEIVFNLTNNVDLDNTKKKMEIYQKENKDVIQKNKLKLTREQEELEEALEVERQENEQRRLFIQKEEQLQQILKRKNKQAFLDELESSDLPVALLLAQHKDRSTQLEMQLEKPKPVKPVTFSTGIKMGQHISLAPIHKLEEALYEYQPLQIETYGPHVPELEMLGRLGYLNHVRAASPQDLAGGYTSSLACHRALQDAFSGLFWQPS

Row | Compound | IC50 [1, 4] | CDK9: Selectivity of CDK7 inhibition over CDK9 inhibition [fold] [2] | CDK2 IC50 range class [3] | IC50 ([1]; Table 7, lower part, read-out: IC50 [nM] CDK7) | IC50 ([1]; Table 7, upper part, read-out: IC50 [nM] CDK7) | Selectivity CDK7 over CDK9 [fold] ([2]; Table 7, lower part) | IC50 ([2]; Table 7, upper part) | Selectivity CDK7 over CDK2 [fold] ([3]; Table 7, lower part) | IC50 ([3]; Table 7, upper part)
1 | COc1cccc([C@H](C)Nc2nc(N3CC(N4CCC(F)(F)C4)C3)nc3c(C(C)C)cnn23)c1 [(VIII-o), (S)-2-(3-(3,3-difluoropyrrolidin-1-yl)azetidin-1-yl)-8-isopropyl-N-(1-(3-methoxyphenyl)ethyl)pyrazolo[1,5-a][1,3,5]triazin-4-amine] | > 100 nM | +++ (IC50>2500 nM) | +++ (IC50>2500 nM) | – | – | – | – | – | –
2 | COc1cccc([C@H](C)Nc2nc(N3CCCC(N)C3)nc3c(C(C)C)cnn23)c1 (stereo partly drawn) [(VIII-p), 2-(3-aminopiperidin-1-yl)-8-isopropyl-N-((S)-1-(3-methoxyphenyl)ethyl)pyrazolo[1,5-a][1,3,5]triazin-4-amine] | > 100 nM | +++ (IC50>2500 nM) | +++ (IC50>2500 nM) | – | – | – | – | – | –
3 | COc1cccc([C@H](C)Nc2nc(N3CCC(N)C3)nc3c(C(C)C)cnn23)c1 (stereo partly drawn) [(VIII-q), 2-(3-aminopyrrolidin-1-yl)-8-isopropyl-N-((S)-1-(3-methoxyphenyl)ethyl)pyrazolo[1,5-a][1,3,5]triazin-4-amine] | > 100 nM | +++ (IC50>2500 nM) | +++ (IC50>2500 nM) | – | – | – | – | – | –
4 | COc1cccc([C@H](C)Nc2nc(N3CC4CCNC4C3)nc3c(C(C)C)cnn23)c1 (stereo partly drawn) [(VIII-r), 2-(hexahydropyrrolo[3,4-b]pyrrol-5(1H)-yl)-8-isopropyl-N-((S)-1-(3-methoxyphenyl)ethyl)pyrazolo[1,5-a][1,3,5]triazin-4-amine] | > 100 nM | +++ (IC50>2500 nM) | +++ (IC50>2500 nM) | – | – | – | – | – | –
5 | COc1cccc([C@H](C)Nc2nc(N(C)CCN3CCOCC3)nc3c(C(C)C)cnn23)c1 [(VIII-s), (S)-8-isopropyl-N4-(1-(3-methoxyphenyl)ethyl)-N2-methyl-N2-(2-morpholinoethyl)pyrazolo[1,5-a][1,3,5]triazine-2,4-diamine] | > 100 nM | +++ (IC50>2500 nM) | +++ (IC50>2500 nM) | – | – | – | – | – | –
6 | COc1cccc([C@H](C)Nc2nc(NCCCN)nc3c(C(C)C)cnn23)c1 [(VIII-t), (S)-N2-(3-aminopropyl)-8-isopropyl-N4-(1-(3-methoxyphenyl)ethyl)pyrazolo[1,5-a][1,3,5]triazine-2,4-diamine] | 30 to 100 nM | +++ (IC50>2500 nM) | +++ (IC50>2500 nM) | – | – | – | – | – | –
7 | COc1cccc([C@H](C)Nc2nc(NCCOCCN)nc3c(C(C)C)cnn23)c1 [(VIII-u), (S)-N2-(2-(2-aminoethoxy)ethyl)-8-isopropyl-N4-(1-(3-methoxyphenyl)ethyl)pyrazolo[1,5-a][1,3,5]triazine-2,4-diamine] | 30 to 100 nM | +++ (IC50>2500 nM) | +++ (IC50>2500 nM) | – | – | – | – | – | –
8 | COc1cccc([C@H](C)Nc2nc(NCC3CCNC3)nc3c(C(C)C)cnn23)c1 (stereo partly drawn) [(VIII-w), 8-isopropyl-N4-((S)-1-(3-methoxyphenyl)ethyl)-N2-(pyrrolidin-3-ylmethyl)pyrazolo[1,5-a][1,3,5]triazine-2,4-diamine] | 30 to 100 nM | +++ (IC50>2500 nM) | +++ (IC50>2500 nM) | – | – | – | – | – | –
9 | COC(=O)C(CN)Nc1nc(N[C@@H](C)c2cccc(OC)c2)n2ncc(C(C)C)c2n1 (stereo partly drawn) [(VIII-y), methyl 3-amino-2-((8-isopropyl-4-(((S)-1-(3-methoxyphenyl)ethyl)amino)pyrazolo[1,5-a][1,3,5]triazin-2-yl)amino)propanoate] | > 100 nM | +++ (IC50>2500 nM) | +++ (IC50>2500 nM) | – | – | – | – | – | –
10 | COc1cccc([C@H](C)Nc2nc(NC(CN)c3ccccc3)nc3c(C(C)C)cnn23)c1 (stereo partly drawn) [(VIII-z), N2-(2-amino-1-phenylethyl)-8-isopropyl-N4-((S)-1-(3-methoxyphenyl)ethyl)pyrazolo[1,5-a][1,3,5]triazine-2,4-diamine] | > 100 nM | +++ (IC50>2500 nM) | +++ (IC50>2500 nM) | – | – | – | – | – | –
11 | CC(C)c1cnn2c(N[C@@H](C)c3ccccc3)nc([S+]([O-])C3CCNCC3)nc12 (stereo partly drawn) [(X-a), 8-isopropyl-N-((S)-1-phenylethyl)-2-(piperidin-4-ylsulfinyl)pyrazolo[1,5-a][1,3,5]triazin-4-amine] | < 10 nM | +++ (IC50>2500 nM) | +++ (IC50>2500 nM) | – | – | – | – | – | –
12 | COc1ccccc1[C@H](C)Nc1nc([S+]([O-])C2CCNCC2)nc2c(C(C)C)cnn12 (stereo partly drawn) [(X-c), 8-isopropyl-N-((S)-1-(2-methoxyphenyl)ethyl)-2-(piperidin-4-ylsulfinyl)pyrazolo[1,5-a][1,3,5]triazin-4-amine] | < 10 nM | +++ (IC50>2500 nM) | +++ (IC50>2500 nM) | < 10 nM | < 10 nM | 1475 fold | > 2500 nM | 1612 fold | > 2500 nM
13 | COc1cccc([C@H](C)Nc2nc(SC3CCNCC3)nc3c(C(C)C)cnn23)c1 [(X-e), (S)-8-isopropyl-N-(1-(3-methoxyphenyl)ethyl)-2-(piperidin-4-ylthio)pyrazolo[1,5-a][1,3,5]triazin-4-amine] | > 100 nM | +++ (IC50>2500 nM) | +++ (IC50>2500 nM) | – | – | – | – | – | –
14 | COc1cccc([C@H](C)Nc2nc(S(=O)(=O)C3CCNCC3)nc3c(C(C)C)cnn23)c1 [(X-f), (S)-8-isopropyl-N-(1-(3-methoxyphenyl)ethyl)-2-(piperidin-4-ylsulfonyl)pyrazolo[1,5-a][1,3,5]triazin-4-amine] | 10 to 30 nM | +++ (IC50>2500 nM) | +++ (IC50>2500 nM) | – | – | – | – | – | –
15 | COc1cccc([C@H](C)Nc2nc(CN3CCNCC3)nc3c(C(C)C)cnn23)c1 [(XXIX-1), (S)-8-isopropyl-N-(1-(3-methoxyphenyl)ethyl)-2-(piperazin-1-ylmethyl)pyrazolo[1,5-a][1,3,5]triazin-4-amine] | > 100 nM | +++ (IC50>2500 nM) | +++ (IC50>2500 nM) | – | – | – | – | – | –
16 | COc1cccc([C@H](C)Nc2nc(CNCCN)nc3c(C(C)C)cnn23)c1 [(XXIX-2), (S)-N1-((8-isopropyl-4-((1-(3-methoxyphenyl)ethyl)amino)pyrazolo[1,5-a][1,3,5]triazin-2-yl)methyl)ethane-1.2-diamine] | > 100 nM | +++ (IC50>2500 nM) | +++ (IC50>2500 nM) | – | – | – | – | – | –
17 | COc1cccc([C@H](C)Nc2nc(CN(C)CC3CNC3)nc3c(C(C)C)cnn23)c1 [(XXIX-3), (S)-2-(((azetidin-3-ylmethyl)(methyl)amino)methyl)-8-isopropyl-N-(1-(3-methoxyphenyl)ethyl)pyrazolo[1,5-a][1,3,5]triazin-4-amine] | > 100 nM | +++ (IC50>2500 nM) | +++ (IC50>2500 nM) | – | – | – | – | – | –
18 | COc1cccc([C@H](C)Nc2nc(CNC3CCNC3)nc3c(C(C)C)cnn23)c1 (stereo partly drawn) [(XXIX-4), 8-isopropyl-N-((S)-1-(3-methoxyphenyl)ethyl)-2-((pyrrolidin-3-ylamino)methyl)pyrazolo[1,5-a][1,3,5]triazin-4-amine] | 30 to 100 nM | +++ (IC50>2500 nM) | +++ (IC50>2500 nM) | – | – | – | – | – | –
19 | COc1cccc([C@H](C)Nc2nc(CNCCCN3CCOCC3)nc3c(C(C)C)cnn23)c1 [(XXIX-5), (S)-8-isopropyl-N-(1-(3-methoxyphenyl)ethyl)-2-(((3-morpholinopropyl)amino)methyl)pyrazolo[1,5-a][1,3,5]triazin-4-amine] | > 100 nM | +++ (IC50>2500 nM) | +++ (IC50>2500 nM) | – | – | – | – | – | –
